Test results as given in article PMC6747015, “Structure–function study of a novel inhibitor of the casein kinase 1 family in Arabidopsis thaliana” (Plant Direct, 2019).

Columns and labels:
[1] = test system: all members of the CK1 family and an additional ten non‐CK1 proteins; assay: AMI‐329 bead binding with AMI‐331 competitor, the 23 AMI‐331‐bound proteins; design: species or system Arabidopsis thaliana
Experimental: (§1) Screening for proteins bound to AMI‐329 beads was done by a method similar to what has previously been described (Uehara et al., 2019). Briefly, two‐week‐old seedlings grown under LD conditions were harvested at time points ZT2, ZT6, ZT9, and ZT17, and stored at −80°C. Proteins from the frozen plant samples were incubated with 0, 5, or 50 µM of AMI‐331 at 4°C for 30 min with rotary mixing. Two technical replicates were used for each experiment. PBS‐washed AMI‐329 beads were added to the protein samples and gently rotated at 4°C for 1 hr. AMI‐329 bead resins were washed with bead buffer (Uehara et al., 2019) six times. The washed resins were suspended in SDS sample buffer and boiled for 8 min. Protein samples were in‐gel‐digested as previously described (Uehara et al., 2019). Peptides were analyzed with a Q Exactive hybrid quadrupole‐orbitrap mass spectrometer (Thermo Fisher Scientific), as described previously (Uehara et al., 2019). […]
(§2) However, another possible mechanism for the strong AMI‐331 biological activity in vivo is that it targets proteins other than the CK1 family for period lengthening. […] It is noteworthy that kinase AT4G08800 is very similar to the CKL family, but the ATP‐binding pocket of mammalian CK1 as determined by its crystal structure (Shinohara et al., 2017) was absent from AT4G08800, as shown in an Araport 11 model (https://www.araport.org). […]

[2] = test system: ATSK (GSK3) family proteins; assay: AMI‐329 bead binding with AMI‐331 competitor, ATSK family; design: species or system Arabidopsis thaliana; settings: 50 µM AMI‐331 as competitor
Experimental: Screening for proteins bound to AMI‐329 beads was done by a method similar to what has previously been described (Uehara et al., 2019). Briefly, two‐week‐old seedlings grown under LD conditions were harvested at time points ZT2, ZT6, ZT9, and ZT17, and stored at −80°C. Proteins from the frozen plant samples were incubated with 0, 5, or 50 µM of AMI‐331 at 4°C for 30 min with rotary mixing. Two technical replicates were used for each experiment. PBS‐washed AMI‐329 beads were added to the protein samples and gently rotated at 4°C for 1 hr. AMI‐329 bead resins were washed with bead buffer (Uehara et al., 2019) six times. The washed resins were suspended in SDS sample buffer and boiled for 8 min. Protein samples were in‐gel‐digested as previously described (Uehara et al., 2019). Peptides were analyzed with a Q Exactive hybrid quadrupole‐orbitrap mass spectrometer (Thermo Fisher Scientific), as described previously (Uehara et al., 2019). MS/MS spectra were interpreted, and peak lists were generated using Proteome Discoverer 2.0.0.802 (Thermo Fisher Scientific). Searches were performed using SEQUEST (Thermo Fisher Scientific) against the Arabidopsis thaliana (TAIR TaxID = 3,702) peptide sequence database. […]
To examine other potential targets of AMI‐331, we analyzed the spectra for PHA767491 target proteins (Uehara et al., 2019). […]

CKL1 (AT4G26100) = molecular target: T1, CKL1 (AT4G26100) (Arabidopsis thaliana, UniProt P42158); assay: AMI‐329 bead binding with AMI‐331 competitor, CKL1
T1 construct: from tissue; host or cells: Arabidopsis seedlings, two weeks old
Experimental: as §1, §2

CKL4 (AT4G28860) = molecular target: T2, CKL4 (AT4G28860) (Arabidopsis thaliana, UniProt Q8LPI7); assay: AMI‐329 bead binding with AMI‐331 competitor, CKL4
T2 construct: from tissue; host or cells: Arabidopsis seedlings, two weeks old
Experimental: as §1, §2

CKL8 (AT5G43320) = molecular target: T3, CKL8 (AT5G43320) (Arabidopsis thaliana, UniProt Q9LSX4); assay: AMI‐329 bead binding with AMI‐331 competitor, CKL8
T3 construct: from tissue; host or cells: Arabidopsis seedlings, two weeks old
Experimental: as §1, §2

Kinase AT4G08800 = assay: AMI‐329 bead binding with AMI‐331 competitor, kinase AT4G08800; design: species or system Arabidopsis thaliana
Experimental: as §1, §2

LUP1 (AT1G78970) = molecular target: T4, LUP1 (AT1G78970) (Arabidopsis thaliana, UniProt Q9C5M3); assay: AMI‐329 bead binding with AMI‐331 competitor, LUP1
T4 construct: from tissue; host or cells: Arabidopsis seedlings, two weeks old
Experimental: as §1, §2

Unknown AT5G42765 = assay: AMI‐329 bead binding with AMI‐331 competitor, unknown protein AT5G42765; design: species or system Arabidopsis thaliana
Experimental: as §1, §2

T3 sequence (Q9LSX4 whole entry): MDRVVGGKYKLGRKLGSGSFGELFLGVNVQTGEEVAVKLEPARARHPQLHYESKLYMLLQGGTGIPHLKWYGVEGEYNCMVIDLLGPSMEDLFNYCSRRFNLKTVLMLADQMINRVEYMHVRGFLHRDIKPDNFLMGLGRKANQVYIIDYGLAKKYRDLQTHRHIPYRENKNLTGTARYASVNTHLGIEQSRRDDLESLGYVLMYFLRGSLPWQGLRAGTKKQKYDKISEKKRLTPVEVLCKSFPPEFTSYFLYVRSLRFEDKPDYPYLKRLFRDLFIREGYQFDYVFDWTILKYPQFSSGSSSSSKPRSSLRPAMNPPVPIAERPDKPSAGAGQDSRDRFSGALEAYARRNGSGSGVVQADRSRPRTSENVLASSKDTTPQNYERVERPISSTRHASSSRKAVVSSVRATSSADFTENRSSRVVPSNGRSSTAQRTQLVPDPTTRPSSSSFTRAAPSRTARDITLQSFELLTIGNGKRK
T1 sequence (P42158 whole entry): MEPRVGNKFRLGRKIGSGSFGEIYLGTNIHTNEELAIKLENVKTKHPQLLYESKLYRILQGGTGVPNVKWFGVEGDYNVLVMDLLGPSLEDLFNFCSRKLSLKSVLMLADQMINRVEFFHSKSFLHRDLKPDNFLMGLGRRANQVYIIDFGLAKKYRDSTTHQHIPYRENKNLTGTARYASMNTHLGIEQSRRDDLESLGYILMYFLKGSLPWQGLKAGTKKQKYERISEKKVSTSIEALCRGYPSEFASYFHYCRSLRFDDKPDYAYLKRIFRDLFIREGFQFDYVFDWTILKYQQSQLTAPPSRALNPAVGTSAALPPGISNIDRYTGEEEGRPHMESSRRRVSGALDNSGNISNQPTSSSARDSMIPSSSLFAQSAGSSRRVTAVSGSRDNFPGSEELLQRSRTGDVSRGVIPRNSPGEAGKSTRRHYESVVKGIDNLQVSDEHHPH
T2 sequence (Q8LPI7 whole entry): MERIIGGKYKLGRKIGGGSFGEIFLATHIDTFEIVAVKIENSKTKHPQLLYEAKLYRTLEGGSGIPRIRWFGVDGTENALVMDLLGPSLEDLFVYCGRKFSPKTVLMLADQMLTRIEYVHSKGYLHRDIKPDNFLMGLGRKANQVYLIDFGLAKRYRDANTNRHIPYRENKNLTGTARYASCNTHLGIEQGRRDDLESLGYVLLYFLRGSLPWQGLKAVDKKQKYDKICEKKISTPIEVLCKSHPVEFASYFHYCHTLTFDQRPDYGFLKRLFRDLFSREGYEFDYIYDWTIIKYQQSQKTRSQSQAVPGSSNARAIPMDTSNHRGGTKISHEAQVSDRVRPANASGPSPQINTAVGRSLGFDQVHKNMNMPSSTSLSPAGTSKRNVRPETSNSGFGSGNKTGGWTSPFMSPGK
T4 sequence (Q9C5M3 whole entry): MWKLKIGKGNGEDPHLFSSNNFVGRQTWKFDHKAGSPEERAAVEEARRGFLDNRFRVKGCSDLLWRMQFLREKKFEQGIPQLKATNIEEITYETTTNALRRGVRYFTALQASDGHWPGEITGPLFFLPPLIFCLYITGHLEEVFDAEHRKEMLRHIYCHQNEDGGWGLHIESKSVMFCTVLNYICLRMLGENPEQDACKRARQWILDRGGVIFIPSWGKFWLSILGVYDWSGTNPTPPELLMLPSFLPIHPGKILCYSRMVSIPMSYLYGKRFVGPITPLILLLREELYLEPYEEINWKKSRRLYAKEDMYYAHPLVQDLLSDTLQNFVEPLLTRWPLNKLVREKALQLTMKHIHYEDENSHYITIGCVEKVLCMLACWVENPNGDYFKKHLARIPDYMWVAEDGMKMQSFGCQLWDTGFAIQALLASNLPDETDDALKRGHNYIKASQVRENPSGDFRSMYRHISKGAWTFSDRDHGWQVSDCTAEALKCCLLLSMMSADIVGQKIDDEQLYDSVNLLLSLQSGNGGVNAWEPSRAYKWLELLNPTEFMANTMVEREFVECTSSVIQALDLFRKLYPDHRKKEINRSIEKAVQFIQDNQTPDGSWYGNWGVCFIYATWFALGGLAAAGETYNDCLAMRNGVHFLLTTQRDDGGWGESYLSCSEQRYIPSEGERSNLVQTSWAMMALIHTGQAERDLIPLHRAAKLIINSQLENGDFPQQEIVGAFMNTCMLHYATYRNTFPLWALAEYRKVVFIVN

`C#CCn1c2c(c(Br)c1-c1ccncc1)C(=O)NCC2.Cl` [AMI‐331] was tested, and the “Spectra on AMI‐329 beads compared to the control sample without competitor” value ([1]; 5 µM AMI‐331 as competitor) was 0% to 7%, the “Spectra on AMI‐329 beads” value ([1]; 50 µM AMI‐331 as competitor) was “absent” and the “Spectra on AMI‐329 beads relative to 0 µM sample” value [2] was 0%–13%. The “Spectra (PSMs) AMI‐329 beads bound” value (CKL1 (AT4G26100); competitor AMI‐331 5 µM) was 2 PSMs, the “Spectra (PSMs) AMI‐329 beads bound” value (CKL1 (AT4G26100); competitor AMI‐331 50 µM) was 0 PSMs and the “Spectra (PSMs) AMI‐329 beads bound” value (CKL4 (AT4G28860); competitor AMI‐331 5 µM) was 1 PSMs. The “Spectra (PSMs) AMI‐329 beads bound” value (CKL4 (AT4G28860); competitor AMI‐331 50 µM) was 0 PSMs, the “Spectra (PSMs) AMI‐329 beads bound” value (CKL8 (AT5G43320); competitor AMI‐331 5 µM) was 0 PSMs and the “Spectra (PSMs) AMI‐329 beads bound” value (CKL8 (AT5G43320); competitor AMI‐331 50 µM) was 0 PSMs. For the same molecule, the “Spectra (PSMs) AMI‐329 beads bound” value (Kinase AT4G08800; competitor AMI‐331 5 µM) was 0 PSMs, the “Spectra (PSMs) AMI‐329 beads bound” value (Kinase AT4G08800; competitor AMI‐331 50 µM) was 0 PSMs and the “Spectra (PSMs) AMI‐329 beads bound” value (LUP1 (AT1G78970); competitor AMI‐331 5 µM) was 0 PSMs. The “Spectra (PSMs) AMI‐329 beads bound” value (LUP1 (AT1G78970); competitor AMI‐331 50 µM) was 0 PSMs, the “Spectra (PSMs) AMI‐329 beads bound” value (Unknown AT5G42765; competitor AMI‐331 5 µM) was 0 PSMs and the “Spectra (PSMs) AMI‐329 beads bound” value (Unknown AT5G42765; competitor AMI‐331 50 µM) was 0 PSMs.
